Laboratory results: US9850256B2, “Antibacterial basic biaromatic derivatives with aminoalkoxy substitution” (priority 2014, dated 2017)
Converted amounts (≈) assume the structure as drawn.

Assays:
Assay in all cases: Bacterial growth minimal inhibitory concentration (microdilution, cation-adjusted Mueller-Hinton Broth)
P. aeruginosa ATCC 27853 = assay type: cell-based, Pseudomonas aeruginosa; settings: Pseudomonas aeruginosa, ATCC27853; quinolone-sensitive strain
Method: (§1) Minimal Inhibitory Concentrations (MICs; mg/L) were determined in cation-adjusted Mueller-Hinton Broth by a microdilution method following the description given in “Methods for Dilution Antimicrobial Susceptibility Tests for Bacteria that Grow Aerobically”, Approved standard, 7th ed., Clinical and Laboratory Standards Institute (CLSI) Document M7-A7, Wayne, Pa., USA (2006).
(§2) All Example compounds were tested against several Gram positive and Gram negative bacteria. […] Staphylococcus aureus A798 is a multiply-resistant strain (methicillin- and quinolone-resistant), Klebsiella pneumoniae T6474 is a multiply-resistant strain (penicillin-, cephalosporin- and in particular quinolone-resistant), while E. coli ATCC25922 and Pseudomonas aeruginosa ATCC 27853 are quinolone-sensitive strains.

K. pneumoniae T6474 = assay type: cell-based, Klebsiella pneumoniae; settings: Klebsiella pneumoniae, T6474; multiply-resistant strain (penicillin-, cephalosporin- and quinolone-resistant)
Method: as §1, §2

E. coli ATCC25922 = assay type: cell-based; settings: Escherichia coli, ATCC25922; quinolone-sensitive strain
Method: as §1, §2

S. aureus A798 = assay type: cell-based, Staphylococcus aureus; settings: Staphylococcus aureus, A798; multiply-resistant strain (methicillin- and quinolone-resistant)
Method: as §1, §2

| Structure (SMILES) | MIC (P. aeruginosa ATCC 27853) | MIC (K. pneumoniae T6474) | MIC (E. coli ATCC25922) | MIC (S. aureus A798) |
| --- | --- | --- | --- | --- |
| NCCCOc1cccc(-c2cccc(CNCC[C@H]3CN(c4ccc5c(n4)NC(=O)CO5)C(=O)O3)c2)c1 [Example 3, 6-[(S)-5-(2-{[3′-(3-amino-propoxy)-biphenyl-3-ylmethyl]-amino}-ethyl)-2-oxo-oxazolidin-3-yl]-4H-pyrido[3,2-b][1,4]oxazin-3-one] | 2 µg/mL (≈ 3.86 µM) | 2 µg/mL (≈ 3.86 µM) | 1 µg/mL (≈ 1.93 µM) | 2 µg/mL (≈ 3.86 µM) |
| CNCCOc1cccc(-c2cccc(CNCC[C@H]3CN(c4ccc5c(n4)NC(=O)CO5)C(=O)O3)c2)c1 [Example 4, 6-[(S)-5-(2-{[3′-(2-methylamino-ethoxy)-biphenyl-3-ylmethyl]-amino}-ethyl)-2-oxo-oxazolidin-3-yl]-4H-pyrido[3,2-b][1,4]oxazin-3-one] | 2 µg/mL (≈ 3.86 µM) | 2 µg/mL (≈ 3.86 µM) | 1 µg/mL (≈ 1.93 µM) | 2 µg/mL (≈ 3.86 µM) |
| NCCCCOc1cccc(-c2cccc(CNCC[C@H]3CN(c4ccc5c(n4)NC(=O)CO5)C(=O)O3)c2)c1 [Example 5, 6-[(S)-5-(2-{[3′-(4-amino-butoxy)-biphenyl-3-ylmethyl]-amino}-ethyl)-2-oxo-oxazolidin-3-yl]-4H-pyrido[3,2-b][1,4]oxazin-3-one] | 4 µg/mL (≈ 7.52 µM) | 4 µg/mL (≈ 7.52 µM) | 4 µg/mL (≈ 7.52 µM) | 2 µg/mL (≈ 3.76 µM) |
| NCCOc1cccc(-c2cccc(CNCC[C@H]3CN(c4ccc5c(n4)NC(=O)CO5)C(=O)O3)c2)n1 [Example 8, 6-[(S)-5-(2-{3-[6-(2-amino-ethoxy)-pyridin-2-yl]-benzylamino}-ethyl)-2-oxo-oxazolidin-3-yl]-4H-pyrido[3,2-b][1,4]oxazin-3-one] | 0.25 µg/mL (≈ 0.495 µM) | 1 µg/mL (≈ 1.98 µM) | 0.5 µg/mL (≈ 0.991 µM) | 0.25 µg/mL (≈ 0.495 µM) |
| O=C1COc2ccc(N3C[C@H](CCNCc4cccc(-c5cccc(OCCN6CCCC6)n5)c4)OC3=O)nc2N1 [Example 9, 6-[(S)-2-oxo-5-(2-{3-[6-(2-pyrrolidin-1-yl-ethoxy)-pyridin-2-yl]-benzylamino}-ethyl)-oxazolidin-3-yl]-4H-pyrido[3,2-b][1,4]oxazin-3-one] | 2 µg/mL (≈ 3.58 µM) | 1 µg/mL (≈ 1.79 µM) | 2 µg/mL (≈ 3.58 µM) | 0.125 µg/mL (≈ 0.224 µM) |
| CN(C)CCOc1cnnc(-c2cccc(CNCC[C@H]3CN(c4ccc5c(n4)NC(=O)CO5)C(=O)O3)c2)c1 [Example 10, 6-[(S)-5-(2-{3-[5-(2-dimethylamino-ethoxy)-pyridazin-3-yl]-benzylamino}-ethyl)-2-oxo-oxazolidin-3-yl]-4H-pyrido[3,2-b][1,4]oxazin-3-one] | 4 µg/mL (≈ 7.5 µM) | 4 µg/mL (≈ 7.5 µM) | 2 µg/mL (≈ 3.75 µM) | 8 µg/mL (≈ 15 µM) |
| NCCOc1cncc(-c2cccc(CNCC[C@H]3CN(c4ccc5c(n4)NC(=O)CO5)C(=O)O3)c2)c1 [Example 11, 6-[(S)-5-(2-{3-[5-(2-amino-ethoxy)-pyridin-3-yl]-benzylamino}-ethyl)-2-oxo-oxazolidin-3-yl]-4H-pyrido[3,2-b][1,4]oxazin-3-one] | 1 µg/mL (≈ 1.98 µM) | 4 µg/mL (≈ 7.93 µM) | 2 µg/mL (≈ 3.96 µM) | 2 µg/mL (≈ 3.96 µM) |
| O=C1COc2ccc(N3C[C@H](CCNCc4cccc(-c5cccc(OCCN6CCCCC6)n5)c4)OC3=O)nc2N1 [Example 12, 6-[(S)-2-oxo-5-(2-{3-[6-(2-piperidin-1-yl-ethoxy)-pyridin-2-yl]-benzylamino}-ethyl)-oxazolidin-3-yl]-4H-pyrido[3,2-b][1,4]oxazin-3-one] | 2 µg/mL (≈ 3.49 µM) | 2 µg/mL (≈ 3.49 µM) | 1 µg/mL (≈ 1.75 µM) | 0.063 µg/mL (≈ 0.11 µM) |
| O=C1COc2ccc(N3C[C@H](CCNCc4cccc(-c5cccc(OCCN6CCCCC6)c5)c4)OC3=O)nc2N1 [Example 13, 6-[(S)-2-oxo-5-(2-{[3′-(2-piperidin-1-yl-ethoxy)-biphenyl-3-ylmethyl]-amino}-ethyl)-oxazolidin-3-yl]-4H-pyrido[3,2-b][1,4]oxazin-3-one] | 8 µg/mL (≈ 14 µM) | 2 µg/mL (≈ 3.5 µM) | 2 µg/mL (≈ 3.5 µM) | 0.5 µg/mL (≈ 0.875 µM) |
| NC1(COc2cccc(-c3cccc(CNCC[C@H]4CN(c5ccc6c(n5)NC(=O)CO6)C(=O)O4)c3)c2)CC1 [Example 14, 6-[(S)-5-(2-{[3′-(1-amino-cyclopropylmethoxy)-biphenyl-3-ylmethyl]-amino}-ethyl)-2-oxo-oxazolidin-3-yl]-4H-pyrido[3,2-b][1,4]oxazin-3-one] | 8 µg/mL (≈ 15.1 µM) | 2 µg/mL (≈ 3.78 µM) | 2 µg/mL (≈ 3.78 µM) | 1 µg/mL (≈ 1.89 µM) |

The remaining lines, values ahead:

| MIC (P. aeruginosa ATCC 27853) | MIC (K. pneumoniae T6474) | MIC (E. coli ATCC25922) | MIC (S. aureus A798) | Structure (SMILES) |
| --- | --- | --- | --- | --- |
| 1 µg/mL (≈ 1.98 µM) | 2 µg/mL (≈ 3.96 µM) | 1 µg/mL (≈ 1.98 µM) | 0.5 µg/mL (≈ 0.989 µM) | NCCOc1cncc(-c2cccc(CNCC[C@H]3CN(c4ccc5c(n4)NC(=O)CO5)C(=O)O3)c2)n1 [Example 15, 6-[(S)-5-(2-{3-[6-(2-amino-ethoxy)-pyrazin-2-yl]-benzylamino}-ethyl)-2-oxo-oxazolidin-3-yl]-4H-pyrido[3,2-b][1,4]oxazin-3-one] |
| 0.5 µg/mL | 4 µg/mL | 2 µg/mL | 0.5 µg/mL | NCCOc1cccc(-c2ccnc(CNCC[C@H]3CN(c4ccc5c(n4)NC(=O)CO5)C(=O)O3)c2)n1.O=CO [Example 16, 6-[(S)-5-(2-{[6-(2-amino-ethoxy)-[2,4′]bipyridinyl-2′-ylmethyl]-amino}-ethyl)-2-oxo-oxazolidin-3-yl]-4H-pyrido[3,2-b][1,4]oxazin-3-one formate] |
| 1 µg/mL (≈ 1.93 µM) | 2 µg/mL (≈ 3.86 µM) | 1 µg/mL (≈ 1.93 µM) | 0.5 µg/mL (≈ 0.964 µM) | C[C@@H](N)COc1cccc(-c2cccc(CNCC[C@H]3CN(c4ccc5c(n4)NC(=O)CO5)C(=O)O3)c2)n1 [Example 17, 6-[(S)-5-(2-{3-[6-((R)-2-amino-propoxy)-pyridin-2-yl]-benzylamino}-ethyl)-2-oxo-oxazolidin-3-yl]-4H-pyrido[3,2-b][1,4]oxazin-3-one] |
| 1 µg/mL (≈ 1.93 µM) | 2 µg/mL (≈ 3.86 µM) | 1 µg/mL (≈ 1.93 µM) | 0.5 µg/mL (≈ 0.964 µM) | C[C@H](N)COc1cccc(-c2cccc(CNCC[C@H]3CN(c4ccc5c(n4)NC(=O)CO5)C(=O)O3)c2)n1 [Example 18, 6-[(S)-5-(2-{3-[6-((S)-2-amino-propoxy)-pyridin-2-yl]-benzylamino}-ethyl)-2-oxo-oxazolidin-3-yl]-4H-pyrido[3,2-b][1,4]oxazin-3-one] |
| 1 µg/mL | 4 µg/mL | 1 µg/mL | 8 µg/mL | NCCOc1cc(-c2cccc(CNCC[C@H]3CN(c4ccc5c(n4)NC(=O)CO5)C(=O)O3)c2)ccn1.O=CO [Example 19, 6-[(S)-5-(2-{3-[2-(2-amino-ethoxy)-pyridin-4-yl]-benzylamino}-ethyl)-2-oxo-oxazolidin-3-yl]-4H-pyrido[3,2-b][1,4]oxazin-3-one formate] |
| 2 µg/mL (≈ 3.66 µM) | 8 µg/mL (≈ 14.6 µM) | 2 µg/mL (≈ 3.66 µM) | 0.5 µg/mL (≈ 0.915 µM) | NCCCCCOc1cccc(-c2cccc(CNCC[C@H]3CN(c4ccc5c(n4)NC(=O)CO5)C(=O)O3)c2)n1 [Example 20, 6-[(S)-5-(2-{3-[6-(5-amino-pentyloxy)-pyridin-2-yl]-benzylamino}-ethyl)-2-oxo-oxazolidin-3-yl]-4H-pyrido[3,2-b][1,4]oxazin-3-one] |
| 1 µg/mL (≈ 1.87 µM) | 2 µg/mL (≈ 3.75 µM) | 1 µg/mL (≈ 1.87 µM) | 0.5 µg/mL (≈ 0.937 µM) | COc1cc(OCCN)cc(-c2cccc(CNCC[C@H]3CN(c4ccc5c(n4)NC(=O)CO5)C(=O)O3)c2)c1 [Example 21, 6-[(S)-5-(2-{[3′-(2-amino-ethoxy)-5′-methoxy-biphenyl-3-ylmethyl]-amino}-ethyl)-2-oxo-oxazolidin-3-yl]-4H-pyrido[3,2-b][1,4]oxazin-3-one] |
